Data as given in patent US20040147720A1, “Novel guasonine triphosphate-binding protein -coupled receptor place 6002312, its gene and production and use of the same” (priority 2001, published 2004).

How the values were obtained:
[1] = tested on: HEK293 cells (Mock); details: HEK293 cells (Mock) with pcDNA3.1(−), not expressing PLACE6002312; [^3H]-histamine 0, 40, 80, 160 nM; room temperature 1 hr; FIG. 7
Method: (§1) The ligand-binding assay can serve as a direct method of receptor pharmacology, and is applicable to high-throughput systems. […] First, human embryonic kidney 293 (HEK293) cells were plated on a 10-cm cell culture dish at the cell density of 1×10^6 cells/dish, and incubated in a humidified incubator under 5% CO2 at 37° C. for 24 hr. Then, 10 μg/dish of pcDNA3.1(−)-PLACE6002312 plasmid was transfected by the calcium phosphate method (Mol. Pharm. (1997)-51: 171). After the culturing was continued for 14 hr, the medium was changed with fresh D-MEM containing 10% FBS, and the cells were incubated for another 2 days. After the culturing had completed, the cells were washed with PBS(−), and then suspended in FBS-free D-MEM at the cell density of 1×10^6 cells/ml. The cell suspension were aliquoted (50 μl/well) into flat-bottomed 96-well plate (Sumitomo Bakelite Co.) pre-siliconized with Siliconize L-25 (Fuji Systems). 50-μl aliquots of D-MEM were added to each well, and then radio-labeled [^3H]-histamine was added thereto at the final concentrations of 0, 40, 80, and 160 nM. The plate was incubated at room temperature for 1 hr. Assays for the non-specific binding of [^3H]-histamine were carried out using D-MEM to which unlabeled histamine had been added previously at the final concentration of 1×10^−5 M. […]

[2] = target: PLACE6002312 polypeptide (Homo sapiens, UniProt Q8TDU6); details: HEK293 cells with pcDNA3.1(−)-PLACE6002312; [^3H]-histamine 0, 40, 80, 160 nM; room temperature 1 hr; non-specific binding with 1×10^−5 M unlabeled histamine; FIG. 7
Method: as §1

PLACE6002312 polypeptide, sequence (Q8TDU6 whole entry): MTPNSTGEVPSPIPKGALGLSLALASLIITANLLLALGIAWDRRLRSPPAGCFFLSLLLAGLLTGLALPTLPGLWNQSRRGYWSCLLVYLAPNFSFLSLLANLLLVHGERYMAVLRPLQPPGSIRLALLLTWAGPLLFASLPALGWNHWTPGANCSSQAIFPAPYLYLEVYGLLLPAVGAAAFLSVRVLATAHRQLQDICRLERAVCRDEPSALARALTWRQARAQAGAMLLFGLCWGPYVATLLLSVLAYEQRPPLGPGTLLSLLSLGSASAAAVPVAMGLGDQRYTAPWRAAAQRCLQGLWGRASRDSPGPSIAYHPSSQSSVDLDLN

## NCCc1c[nH]cn1 [histamine]
[1]
  specific binding to [^3H]-histamine (total binding minus non-specific binding): undetectable
[2]
  specific binding to [^3H]-histamine (total binding minus non-specific binding): detected
